From PubChem BioAssay (NCI) come the findings set out here.

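Tested at 5 concentrations; 48 h exposure; 96-well plates; endpoints linearly interpolated, else capped at highest concentration. TGI marks complete inhibition of growth.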

What all share (assay): growth of human tumour cells (NCI), 48 h
In test [1] the test system is LOX IMVI melanoma.
Test [2] deals with MDA-MB-435.
The subject of test [3] is EKVX NSCLC.
The test system of test [4] is SW-620 colon.
Test [5] has as its system COLO 205 colon.
Test [6] concerns NCI-H522 lung.
For test [7], the system named is T-47D breast.
In test [8] the test system is UACC-257 melanoma.
The test system of test [9] is IGROV1 ovarian.
Test [10] relates to SF-268 CNS.
In test [11] the test system is CAKI-1 renal.
Test [12] has as its system OVCAR-5 ovarian.
In test [13] the test system is HCT-15 colon.
For test [14], the system named is SK-MEL-28 melanoma.
Test [15] deals with SK-MEL-5 melanoma.
Test [16] has as its system TK-10 renal.
In test [17] the test system is NCI-H226 lung.
Test [18] relates to OVCAR-4 ovarian.
Test [19] concerns A498 renal.

Consider `Cc1ccc2nc3c(=O)[nH]c(=O)nc-3n(C)c2c1C`, for which the TGI in test [1], in test [2], in test [3], in test [4], in test [5] and in test [6] was more than 100 µM in each case. The TGI in test [7], in test [8], in test [9], in test [10], in test [11] and in [12] was more than 100 µM each time. In addition, the TGI in test [13], in test [14], in test [15], in test [16], in [17] and in [18] was more than 100 µM throughout.

Consider `O=C1N=C(SC(SC2=NC(=O)C3(NN2)c2ccccc2-c2ccccc23)=C(SC2=NC(=O)C3(NN2)c2ccccc2-c2ccccc23)SC2=NC(=O)C3(NN2)c2ccccc2-c2ccccc23)NNC12c1ccccc1-c1ccccc12`, for which the TGI in test [1], in test [2], in test [3], in [4], in test [5] and in test [6] was more than 10 µM in each case. The TGI in test [7], in [8], in [9], in test [10], in test [11] and in test [13] was more than 10 µM each time. The TGI in test [14], in [15], in test [16], in [17] and in test [18] was more than 10 µM throughout.

`CC(=O)OCC1=C(C(=O)O)N2C(=O)C(NC(=O)CSc3ccncc3)C2SC1` (configuration not stated): the TGI in test [1], in test [2], in test [3], in test [4], in test [5] and in [6] was more than 100 µM in each case. For the same molecule, the TGI in [7], in test [8], in test [9], in [10], in test [19] and in [11] was more than 100 µM throughout. Moreover, the TGI in test [12], in test [13], in test [14], in test [15] and in test [17] was more than 100 µM each time.

For the molecule `CCN1CCC(O)(c2ccc(Oc3ccccc3)cc2)C(C(=O)c2ccc(Oc3ccccc3)cc2)C1` (configuration not stated), the TGI turned out to be 16.9 µM in [1]; 26.2 µM in test [2]; 36.9 µM in test [3]; 26.4 µM in [4]; 30 µM in test [5]; 43.9 µM in test [6]. Also, the TGI in test [7] was found to be 28.4 µM; in test [8] it was 26.3 µM; in [9], 33 µM; in test [10], 35.6 µM; in [19], 30.4 µM; in test [11], 31.2 µM. For the same molecule, the TGI in test [12] worked out at 31.3 µM; in [13] it was 25.7 µM; in test [14], 26.5 µM; in test [15] it was 25.7 µM; in [16] it was 27.3 µM; in [18], 25.3 µM.

Consider `CN(C)c1ccc(/C=C/C(=O)CC(=O)/C=C/c2ccc(N(C)C)cc2)cc1`, for which the TGI in test [1], in test [2], in [3], in test [4], in test [5] and in [6] was more than 100 µM in each case. Also, the TGI in test [7], in test [9], in test [10], in test [11], in [12] and in [13] was more than 100 µM throughout. The TGI in test [14], in test [15], in test [16], in test [17] and in test [18] was more than 100 µM each time.

As for `O=c1c2ccccc2nc(-c2cc3c(cc2Cl)Sc2nccn2S3(=O)=O)n1-c1ccccc1`, the TGI in test [1] is more than 100 µM; in [2] it was 71.1 µM; in [3], 48 µM; in [4], 47.5 µM; in [5] it was more than 100 µM; in test [6], more than 100 µM. In addition, the TGI in test [7] is 23.8 µM; in test [8], 34.2 µM; in test [9], more than 100 µM; in test [10], 22.2 µM; in test [11], more than 100 µM; in test [12], more than 100 µM. Moreover, the TGI in test [13] is 33 µM; in test [14], 41.8 µM; in test [15], more than 100 µM; in [16], 49.9 µM; in [17] it was more than 100 µM; in test [18], 44.8 µM.

Take `O=NN1C(c2ccccc2)CC(=NO)CC1c1ccccc1` (configuration not stated): the TGI in test [1], in test [2], in test [3], in [4], in [5] and in test [6] was more than 100 µM in each case. The TGI in test [7], in [8], in [9], in test [10], in test [11] and in test [13] was more than 100 µM throughout. Further, the TGI in [14], in test [15], in test [16], in [17] and in test [18] was more than 100 µM in each case.

Regarding `CC(=O)OCCCC(NC(=O)OC(C)(C)C)C(=O)NC(CCCOC(C)=O)C(=O)NC(Cc1ccc([N+](=O)[O-])cc1)C(=O)NCC(=O)OCc1ccccc1` (configuration not stated), the TGI was found to be 25.9 µM in test [1]; 31.1 µM in test [2]; 33.3 µM in test [3]; 31.1 µM in test [4]; 31.4 µM in test [5]; 32.3 µM in [6]. Moreover, the TGI in test [7] was 33.5 µM; in test [8] it was 28.6 µM; in [9] it was 34 µM; in [10], 35.6 µM; in [11] it was 34.5 µM; in test [12], 31.4 µM. For the same molecule, the TGI in [13] stood at 30.2 µM; in [14] it was 31.9 µM; in test [15] it was 30.1 µM; in [16], 43.3 µM; in test [17], 31.3 µM; in test [18], 28.8 µM.

Take `O=[N+]([O-])C(=C(Nc1ccccc1)Nc1ccccc1)/C(Cl)=C(\Cl)[N+](=O)[O-]`: the TGI in test [1] was found to be 11.4 µM; in [2], 10.5 µM; in [3] it was 19.5 µM; in [4], 5.6 µM; in test [5], 7.08 µM; in test [7], 7.43 µM. Besides, the TGI was found to be 19.7 µM in test [8]; 14.6 µM in test [10]; 46.2 µM in test [19]; 3.18 µM in [11]; 22.7 µM in test [12]; 12.3 µM in test [13]. The TGI in test [14] was 16.3 µM; in test [15], 5.05 µM; in test [16], 16.9 µM; in test [17] it was 34.5 µM; in test [18] it was 17.6 µM.

Regarding `CCOC(=O)c1cc(=O)c2ccnc3c2n1CCS3`, the TGI is more than 100 µM in [1]; more than 100 µM in test [2]; more than 100 µM in [3]; more than 100 µM in [4]; more than 100 µM in test [5]; 74.4 µM in [6]. The TGI in test [7], in test [8], in [9], in test [10], in [19] and in test [11] was more than 100 µM throughout. For the same molecule, the TGI in test [12], in test [13], in test [14], in test [15], in test [16] and in [17] was more than 100 µM throughout.

`COC(=O)C1=C(C)C(=O)[C@]23C(CCCC[C@H]12)C(=O)[C@H](C(=O)OC)C3C` (some centres not stated): the TGI in test [1], in [2], in test [3], in test [4], in test [5] and in test [6] was more than 100 µM each time. Further, the TGI in test [7], in test [8], in test [9], in test [10], in [11] and in test [12] was more than 100 µM in each case. Also, the TGI in [13], in [14], in test [16], in test [17] and in [18] was more than 100 µM in each case.

For the molecule `C=C[C@@]1(C)CC[C@@H]2[C@@]3(C1)O[C@H]3CC1[C@](C)(C(=O)OC)CCC[C@@]12C` (some centres not stated), the TGI in test [2] was more than 100 µM; in test [3], 38.6 µM; in test [4], 41.9 µM; in test [5] it was 31.8 µM; in test [6], 31.6 µM; in [7] it was 55.9 µM. In addition, the TGI in [8] was 44.3 µM; in test [9], 58.4 µM; in test [10], 38.4 µM; in test [19], more than 100 µM; in [11] it was more than 100 µM; in [12], 32.3 µM. For the same molecule, the TGI was 35.8 µM in test [13]; 42.1 µM in [14]; 33.7 µM in test [15]; 51.7 µM in test [16]; more than 100 µM in test [18].

Regarding `CCc1cc2c(c3c1CCC3=O)CC1(Cc3ccc(C)cc3C1)C2` (configuration not stated), the TGI in [1], in test [2], in test [3], in test [5], in [6] and in test [7] was more than 100 µM each time. For the same molecule, the TGI in [8] was more than 100 µM; in test [9], more than 100 µM; in [19], more than 100 µM; in [12], more than 100 µM; in [13] it was more than 100 µM; in [15], 76.8 µM. In addition, the TGI was more than 100 µM in [16], 99.8 µM in [17] and 98 µM in test [18].

Take `COC(=O)C(Cc1ccccc1)NP(=O)(O)OCC1OC(n2cc(Br)c(=O)[nH]c2=O)CC1O` (configuration not stated): the TGI in [1], in test [2], in [3], in test [4], in [5] and in test [6] was more than 100 µM throughout. The TGI in test [7], in [8], in [9], in [10], in test [19] and in test [12] was more than 100 µM throughout. In addition, the TGI in [13], in [14], in test [15], in [16], in test [17] and in test [18] was more than 100 µM throughout.

As for `COc1c2cc(C(C)(C)C)cc1Cc1cccc(c1OCc1cccc([N+](=O)[O-])c1)Cc1cc(C(C)(C)C)cc(c1OC)Cc1cccc(c1OCc1cccc([N+](=O)[O-])c1)Cc1cc(C(C)(C)C)cc(c1OC)Cc1cccc(c1OCc1cccc([N+](=O)[O-])c1)C2`, the TGI in test [2], in test [3], in test [4], in test [5], in test [6] and in [7] was more than 50 µM in each case. Also, the TGI in [8], in test [9], in [10], in test [19], in test [11] and in [12] was more than 50 µM throughout. Further, the TGI in test [13], in [14] and in [15] was more than 50 µM throughout.
